Experimental data reported in article PMC7827406, “Structure–Activity Relationship (SAR) Study of Spautin-1 to Entail the Discovery of Novel NEK4 Inhibitors” (International Journal of Molecular Sciences, 2021).
Where two headings read alike, the source gives them in different places.

What was measured:
Experiment in all cases: biochemical
Design in all cases: Eurofins KinaseProfiler full panel at Km ATP, residual kinase activity (%) relative to DMSO
HIPK2(h) = HIPK2(h) (Homo sapiens, UniProt Q9H2X6)
Sequence of HIPK2(h) (Q9H2X6 whole entry): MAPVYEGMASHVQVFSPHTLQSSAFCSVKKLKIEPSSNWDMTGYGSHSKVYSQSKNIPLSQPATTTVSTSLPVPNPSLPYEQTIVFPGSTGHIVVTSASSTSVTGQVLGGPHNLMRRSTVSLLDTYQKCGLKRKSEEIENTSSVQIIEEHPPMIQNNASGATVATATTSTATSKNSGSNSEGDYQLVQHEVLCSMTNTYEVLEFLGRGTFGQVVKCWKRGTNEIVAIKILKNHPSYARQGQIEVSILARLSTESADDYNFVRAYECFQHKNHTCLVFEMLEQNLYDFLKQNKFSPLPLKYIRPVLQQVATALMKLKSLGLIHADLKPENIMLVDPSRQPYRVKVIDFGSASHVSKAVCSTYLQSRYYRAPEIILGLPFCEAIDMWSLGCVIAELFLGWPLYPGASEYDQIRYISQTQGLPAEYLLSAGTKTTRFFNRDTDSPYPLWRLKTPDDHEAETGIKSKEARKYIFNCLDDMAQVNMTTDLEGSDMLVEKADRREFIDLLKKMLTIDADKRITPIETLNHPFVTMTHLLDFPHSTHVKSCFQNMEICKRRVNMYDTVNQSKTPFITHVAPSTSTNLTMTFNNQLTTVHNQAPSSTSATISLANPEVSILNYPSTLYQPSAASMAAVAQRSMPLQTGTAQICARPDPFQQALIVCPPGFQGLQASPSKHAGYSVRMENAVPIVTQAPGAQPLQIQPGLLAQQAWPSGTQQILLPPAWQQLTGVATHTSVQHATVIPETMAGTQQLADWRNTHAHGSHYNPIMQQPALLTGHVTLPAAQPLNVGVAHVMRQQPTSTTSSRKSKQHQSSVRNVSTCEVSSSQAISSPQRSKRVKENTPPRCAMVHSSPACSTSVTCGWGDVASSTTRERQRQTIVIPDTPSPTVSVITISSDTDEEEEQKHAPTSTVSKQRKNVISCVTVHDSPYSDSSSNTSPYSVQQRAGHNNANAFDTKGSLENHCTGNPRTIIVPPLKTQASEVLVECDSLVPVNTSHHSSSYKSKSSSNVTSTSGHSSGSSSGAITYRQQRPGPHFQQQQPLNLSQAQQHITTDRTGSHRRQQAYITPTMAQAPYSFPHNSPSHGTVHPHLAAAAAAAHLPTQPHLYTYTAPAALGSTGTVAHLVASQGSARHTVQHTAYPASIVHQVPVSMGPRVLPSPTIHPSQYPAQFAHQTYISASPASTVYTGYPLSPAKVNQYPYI
Outline: (§1)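 Radiometric kinase activity assays were run with ATP at Km and compounds at 10 µM, and remaining activity (%) was reported. A separate competitive binding screen measured DNA-tagged kinase displaced from immobilized active-site ligands by qPCR, giving percent kinase still bound at 10 µM compound in DMSO.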

TTBK1(h) = TTBK1(h) (Homo sapiens, UniProt Q5TCY1)
Sequence of TTBK1(h) (Q5TCY1 whole entry): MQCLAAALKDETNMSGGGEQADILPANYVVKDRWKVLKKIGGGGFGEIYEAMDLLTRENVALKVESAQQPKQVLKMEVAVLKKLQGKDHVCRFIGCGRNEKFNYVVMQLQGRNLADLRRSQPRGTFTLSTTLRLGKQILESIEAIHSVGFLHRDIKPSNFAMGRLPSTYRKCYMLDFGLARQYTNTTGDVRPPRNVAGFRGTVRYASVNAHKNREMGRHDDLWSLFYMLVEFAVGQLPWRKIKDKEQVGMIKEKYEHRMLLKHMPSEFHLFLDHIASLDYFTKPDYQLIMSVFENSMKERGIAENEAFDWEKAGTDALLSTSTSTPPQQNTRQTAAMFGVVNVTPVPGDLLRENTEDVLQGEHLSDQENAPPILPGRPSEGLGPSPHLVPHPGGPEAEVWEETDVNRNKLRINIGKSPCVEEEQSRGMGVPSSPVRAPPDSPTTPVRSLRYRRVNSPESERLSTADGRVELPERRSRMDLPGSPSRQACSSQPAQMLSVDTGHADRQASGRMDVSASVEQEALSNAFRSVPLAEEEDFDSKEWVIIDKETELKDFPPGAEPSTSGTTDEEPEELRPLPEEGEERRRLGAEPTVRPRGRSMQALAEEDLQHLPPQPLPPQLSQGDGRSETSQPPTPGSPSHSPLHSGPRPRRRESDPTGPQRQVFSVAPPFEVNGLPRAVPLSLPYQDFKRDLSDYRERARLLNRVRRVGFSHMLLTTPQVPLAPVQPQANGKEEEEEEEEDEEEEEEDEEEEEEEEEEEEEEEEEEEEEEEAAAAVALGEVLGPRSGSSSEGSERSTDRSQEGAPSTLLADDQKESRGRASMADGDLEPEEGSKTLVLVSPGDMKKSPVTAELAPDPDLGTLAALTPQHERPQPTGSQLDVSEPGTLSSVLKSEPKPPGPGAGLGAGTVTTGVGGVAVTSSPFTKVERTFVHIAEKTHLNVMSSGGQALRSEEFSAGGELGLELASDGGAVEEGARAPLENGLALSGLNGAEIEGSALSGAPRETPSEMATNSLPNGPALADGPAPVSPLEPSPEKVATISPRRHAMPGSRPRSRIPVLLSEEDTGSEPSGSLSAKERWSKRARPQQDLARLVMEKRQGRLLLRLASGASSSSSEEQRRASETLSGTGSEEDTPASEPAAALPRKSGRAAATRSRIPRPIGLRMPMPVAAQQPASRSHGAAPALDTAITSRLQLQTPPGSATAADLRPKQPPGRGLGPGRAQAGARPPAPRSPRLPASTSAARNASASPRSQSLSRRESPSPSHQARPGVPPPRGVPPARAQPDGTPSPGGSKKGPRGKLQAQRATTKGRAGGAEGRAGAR
Outline: as §1

CK1γ3(h) = target: T1, CK1γ3(h) (Homo sapiens, UniProt Q9Y6M4)
T1 construct: gene CSNK1G3
Outline: as §1

ACK1(h) = target: T2, ACK1(h) (Homo sapiens, UniProt Q07912)
T2 construct: gene TNK2
Outline: as §1

Aurora-C(h) = target: T3, Aurora-C(h) (Homo sapiens, UniProt Q9UQB9)
T3 construct: gene AURKC
T3 sequence (Q9UQB9 1-309): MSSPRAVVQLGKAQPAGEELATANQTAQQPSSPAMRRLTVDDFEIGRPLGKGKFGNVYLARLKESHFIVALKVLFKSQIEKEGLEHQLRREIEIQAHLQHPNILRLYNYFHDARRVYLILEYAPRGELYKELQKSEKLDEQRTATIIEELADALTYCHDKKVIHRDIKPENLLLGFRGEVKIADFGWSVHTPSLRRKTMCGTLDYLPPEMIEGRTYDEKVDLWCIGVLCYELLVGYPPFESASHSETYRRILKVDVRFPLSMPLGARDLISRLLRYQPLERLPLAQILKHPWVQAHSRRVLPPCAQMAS
Outline: as §1

SBK1(h) = SBK1(h) (Homo sapiens, UniProt Q52WX2)
Sequence of SBK1(h) (Q52WX2 whole entry): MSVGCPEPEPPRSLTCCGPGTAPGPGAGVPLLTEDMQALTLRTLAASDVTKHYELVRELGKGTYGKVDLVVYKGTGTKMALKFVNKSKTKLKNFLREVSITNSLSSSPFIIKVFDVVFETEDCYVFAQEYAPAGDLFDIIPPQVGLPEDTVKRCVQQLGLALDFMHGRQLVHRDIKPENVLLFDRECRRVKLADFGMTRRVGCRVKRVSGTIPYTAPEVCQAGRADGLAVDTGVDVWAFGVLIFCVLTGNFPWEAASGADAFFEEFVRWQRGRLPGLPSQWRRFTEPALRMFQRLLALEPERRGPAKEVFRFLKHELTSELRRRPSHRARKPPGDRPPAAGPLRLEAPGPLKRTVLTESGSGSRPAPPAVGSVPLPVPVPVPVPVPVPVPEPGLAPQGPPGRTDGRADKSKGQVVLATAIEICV
Outline: as §1

CaMKIIβ(h) = target: T4, CaMKIIβ(h) (Homo sapiens, UniProt Q13554)
T4 construct: gene CAMK2B
T4 sequence (Q13554 whole entry): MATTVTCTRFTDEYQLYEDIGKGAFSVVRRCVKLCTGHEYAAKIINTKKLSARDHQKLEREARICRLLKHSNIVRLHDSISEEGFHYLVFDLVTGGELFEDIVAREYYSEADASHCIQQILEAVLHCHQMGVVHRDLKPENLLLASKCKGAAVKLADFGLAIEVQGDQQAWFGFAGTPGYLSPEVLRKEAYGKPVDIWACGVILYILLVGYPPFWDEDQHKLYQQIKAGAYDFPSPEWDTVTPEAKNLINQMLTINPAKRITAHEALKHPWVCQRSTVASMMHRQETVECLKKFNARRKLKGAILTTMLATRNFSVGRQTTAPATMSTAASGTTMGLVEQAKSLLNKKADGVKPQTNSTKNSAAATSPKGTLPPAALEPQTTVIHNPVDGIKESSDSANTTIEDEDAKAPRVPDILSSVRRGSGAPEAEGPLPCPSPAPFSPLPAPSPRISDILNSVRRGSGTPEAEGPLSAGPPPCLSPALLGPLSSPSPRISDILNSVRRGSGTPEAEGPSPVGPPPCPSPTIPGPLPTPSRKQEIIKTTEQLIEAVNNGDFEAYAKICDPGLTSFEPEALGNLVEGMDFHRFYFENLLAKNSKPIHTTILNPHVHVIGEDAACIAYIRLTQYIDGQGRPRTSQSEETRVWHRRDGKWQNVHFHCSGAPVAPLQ
Outline: as §1

Src(T341M)(h) = Src(T341M)(h) (Homo sapiens, UniProt P12931, T341M)
Sequence of Src(T341M)(h) (P12931 whole entry T341M): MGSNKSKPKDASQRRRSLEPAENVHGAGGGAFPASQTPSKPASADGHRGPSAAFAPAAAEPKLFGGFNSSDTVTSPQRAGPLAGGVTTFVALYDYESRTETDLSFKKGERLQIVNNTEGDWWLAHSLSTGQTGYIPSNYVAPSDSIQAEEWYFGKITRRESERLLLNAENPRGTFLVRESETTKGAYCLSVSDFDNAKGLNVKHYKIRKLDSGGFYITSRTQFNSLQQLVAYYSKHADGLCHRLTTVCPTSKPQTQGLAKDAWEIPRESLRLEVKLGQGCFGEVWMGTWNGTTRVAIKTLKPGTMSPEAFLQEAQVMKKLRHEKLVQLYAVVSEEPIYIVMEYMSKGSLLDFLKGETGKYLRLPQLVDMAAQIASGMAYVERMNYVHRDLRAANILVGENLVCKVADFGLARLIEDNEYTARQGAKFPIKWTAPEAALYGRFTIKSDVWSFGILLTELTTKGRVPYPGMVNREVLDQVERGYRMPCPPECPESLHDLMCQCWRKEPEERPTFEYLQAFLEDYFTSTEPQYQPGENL
Outline: as §1

OSR1(h) = target: T5, OSR1(h) (Homo sapiens, UniProt O95747)
T5 construct: gene OXSR1
T5 sequence (O95747 whole entry): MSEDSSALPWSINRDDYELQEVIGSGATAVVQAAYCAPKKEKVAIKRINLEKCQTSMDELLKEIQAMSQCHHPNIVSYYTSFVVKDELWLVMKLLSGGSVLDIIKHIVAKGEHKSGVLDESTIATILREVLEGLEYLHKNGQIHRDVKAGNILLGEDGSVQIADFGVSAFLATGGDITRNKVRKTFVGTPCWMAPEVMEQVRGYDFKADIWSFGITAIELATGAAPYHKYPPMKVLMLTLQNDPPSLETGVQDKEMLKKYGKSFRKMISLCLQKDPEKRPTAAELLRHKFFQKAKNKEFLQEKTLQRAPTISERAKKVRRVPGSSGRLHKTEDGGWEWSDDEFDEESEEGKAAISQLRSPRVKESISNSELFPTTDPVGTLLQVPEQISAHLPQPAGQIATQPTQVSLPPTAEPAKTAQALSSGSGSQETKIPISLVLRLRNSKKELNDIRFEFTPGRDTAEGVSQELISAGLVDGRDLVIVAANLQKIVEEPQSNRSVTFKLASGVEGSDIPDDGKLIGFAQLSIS
Outline: as §1

EGFR(L861Q)(h) = EGFR(L861Q)(h) (Homo sapiens, UniProt P00533, L861Q)
Outline: as §1

[1] = read-out: Residual activity (%) 5ay
[2] = read-out: Residual activity (%) Spautin-1 5aa
[3] = read-out: Residual activity (%) 5at
[4] = read-out: Residual activity (%) 5as

Compound `COc1ccc2ncnc(Nc3cccc(F)c3)c2c1` [5ay, N-(3-Fluorophenyl)-6-Methoxy-4-Quinazolinamine] has a remaining activity at 10 µM (HIPK2(h); [1]) of 86%, a remaining activity at 10 µM (TTBK1(h); [1]) of 112% and a remaining activity at 10 µM (CK1γ3(h); [1]) of 83%. It also gave a remaining activity at 10 µM (ACK1(h); [1]) of 56%, a remaining activity at 10 µM (Aurora-C(h); [1]) of 106% and a remaining activity at 10 µM (SBK1(h); [1]) of 83%. For the same compound, the remaining activity at 10 µM (CaMKIIβ(h); [1]) was 72%, the remaining activity at 10 µM (Src(T341M)(h); [1]) was 96% and the remaining activity at 10 µM (OSR1(h); [1]) was 107%.
`Fc1ccc(CNc2ncnc3ccc(F)cc23)cc1` [5aa, 6-Fluoro-N-(4-fluorobenzyl)-4-Quinazolinamine] showed a remaining activity at 10 µM (HIPK2(h); [2]) of 109%, a remaining activity at 10 µM (TTBK1(h); [2]) of 119% and a remaining activity at 10 µM (CK1γ3(h); [2]) of 81%. It also gave a remaining activity at 10 µM (ACK1(h); [2]) of 85%, a remaining activity at 10 µM (Aurora-C(h); [2]) of 120% and a remaining activity at 10 µM (SBK1(h); [2]) of 106%. It also gave a remaining activity at 10 µM (EGFR(L861Q)(h); [2]) of 36%, a remaining activity at 10 µM (CaMKIIβ(h); [2]) of 81% and a remaining activity at 10 µM (Src(T341M)(h); [2]) of 94%. It also gave a remaining activity at 10 µM (OSR1(h); [2]) of 100%.
`Fc1ccc2ncnc(NCCc3ccc(Cl)cc3)c2c1` [5at, N-[2-(4-Chlorophenyl)Ethyl]-6-Fluoro-4-Quinazolinamine] showed a remaining activity at 10 µM (HIPK2(h); [3]) of 94%, a remaining activity at 10 µM (TTBK1(h); [3]) of 114% and a remaining activity at 10 µM (CK1γ3(h); [3]) of 73%. The remaining activity at 10 µM (ACK1(h); [3]) was 71%, the remaining activity at 10 µM (Aurora-C(h); [3]) was 118% and the remaining activity at 10 µM (SBK1(h); [3]) was 103%. The remaining activity at 10 µM (EGFR(L861Q)(h); [3]) was 73%, the remaining activity at 10 µM (CaMKIIβ(h); [3]) was 91% and the remaining activity at 10 µM (Src(T341M)(h); [3]) was 83%. The remaining activity at 10 µM (OSR1(h); [3]) was 108%.
For `Fc1ccc(CCNc2ncnc3ccc(F)cc23)cc1` [5as, 6-Fluoro-N-[2-(4-Fluorophenyl)Ethyl]-4-Quinazolinamine], the remaining activity at 10 µM (HIPK2(h); [4]) was 96%, the remaining activity at 10 µM (TTBK1(h); [4]) was 104% and the remaining activity at 10 µM (CK1γ3(h); [4]) was 87%. For the same compound, the remaining activity at 10 µM (ACK1(h); [4]) was 84%, the remaining activity at 10 µM (Aurora-C(h); [4]) was 102% and the remaining activity at 10 µM (SBK1(h); [4]) was 95%. It also gave a remaining activity at 10 µM (EGFR(L861Q)(h); [4]) of 51%, a remaining activity at 10 µM (CaMKIIβ(h); [4]) of 91% and a remaining activity at 10 µM (Src(T341M)(h); [4]) of 103%. For the same compound, the remaining activity at 10 µM (OSR1(h); [4]) was 95%.
